Assay results from patent US11090304B2 (Amgen Inc., priority 2018, dated 2021).

What was measured:
[1] = target: GDP-bound KRAS protein (aa 1-169), containing both G12C and C118A amino acid substitutions (Homo sapiens, UniProt P01116, C118A/G12C); experiment: Coupled nucleotide exchange assay (SOS-mediated, AlphaScreen); type: biochemical; settings: 5 min compound pre-incubation
[2] = tested on: Phosphorylation of ERK1/2 in MIA PaCa-2 cells; experiment: Phospho-ERK1/2 MSD assay in MIA PaCa-2 cells; type: cell-based; settings: Homo sapiens, MIA PaCa-2, 2 h, read-out: p-ERK IC50 (2 h; MIA PaCa-2), 2 h compound treatment
In short: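 Following a 2 or 4 h incubation with titrated compound, cells receive a 10 min pulse of 10 ng/mL EGF. Phospho-ERK1/2 in RIPA lysates is then quantified by MSD immunoassay, and IC50 values come from a four-parameter logistic model.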

GDP-bound KRAS protein (aa 1-169), containing both G12C and C118A amino acid substitutions, sequence (P01116 1-169 isoform P01116-2 G12C/C118A): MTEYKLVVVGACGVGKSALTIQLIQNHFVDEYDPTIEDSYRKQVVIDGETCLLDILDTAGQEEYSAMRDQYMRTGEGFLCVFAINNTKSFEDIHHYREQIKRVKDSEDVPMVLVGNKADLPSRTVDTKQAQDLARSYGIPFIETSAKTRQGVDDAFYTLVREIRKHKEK

SMILES	Coupled exchange IC50 (5 min) [1]	IC50 [2]	IC50 ([1]; read-out: Coupled exchange IC50 (5 min))
C=CC(=O)N1CCN(c2nc(=O)n(-c3c(C)cc(CO)cc3C(C)C)c3nc(-c4ccccc4F)c(Cl)cc23)[C@@H](C)C1 [80-2, 6-chloro-7-(2-fluorophenyl)-1-(4-(hydroxymethyl)-2-methyl-6-(2-propanyl)phenyl)-4-((2S)-2-methyl-4-(2-propenoyl)-1-piperazinyl) pyrido[2,3-d] pyrimidin-2(1H)-one]	0.11 | nda μM	97 nM	
C=CC(=O)N1CCN(c2nc(=O)n(-c3ncccc3CC)c3nc(-c4ccccc4F)c(Cl)cc23)[C@@H](C)C1 [Example 54-15, 6-chloro-1-(3-ethyl-2~ pyridinyl)-7-(2-fluorophenyl)-4-((2S)-2-methyl-4-(2-propenoyl)-1-piperazinyl) pyrido[2,3-d]pyrimidin-2(1H)-one]	0.564 | nda μM	347 nM	
C=CC(=O)N1CCN(c2nc(=O)n(-c3ncccc3CC)c3nc(-c4c(O)cccc4F)c(Cl)cc23)[C@@H](C)C1 [Example 54-16, 6-chloro-1-(3-ethyl-2-pyridinyl)-7-(2-fluoro-6-hydroxyphenyl)-4-((2S)-2-methyl-4-(2-propenoyl)-1-piperazinyl) pyrido[2,3-d]pyrimidin-2(1H)-one]	0.149 | nda μM	149 nM	
C=CC(=O)N1CCN(c2nc(=O)n(-c3c(C(C)C)ccnc3C)c3nc(-c4ccccc4F)c(Cl)cc23)[C@@H](C)C1 [Example 54-18, 6-chloro-7-(2-fluorophenyl)-1-(2-methyl-4-(2-propanyl)-3-pyridinyl)-4-((2S)-2-methyl-4-(2-propenoyl)-1-piperazinyl) pyrido[2,3-d]pyrimidin-2(1H)-one]	0.087 | nda μM	81 nM	
C=CC(=O)N1CCN(c2nc(=O)n(-c3nccnc3C(C)C)c3nc(-c4c(O)cccc4F)c(Cl)cc23)[C@@H](C)C1 [Example 54-21, 6-chloro-7-(2-fluoro-6-hydroxyphenyl)-4-((2S)-2-methyl-4-(2-propenoyl)-1-piperazinyl)-1-(3-(2-propanyl)-2-pyrazinyl) pyrido[2,3-d]pyrimidin-2(1H)-one]	1.67 | nda μM	2480 nM	
C=CC(=O)N1CCN(c2nc(=O)n(-c3ccnn3C(C)C)c3nc(-c4c(O)cccc4F)c(Cl)cc23)[C@@H](C)C1 [Example 54-25, 6-chloro-7-(2-fluoro-6-hydroxy-phenyl)-4-((2S)-2-methyl-4-(2-propenoyl)-1-piperazinyl)-1-(1-(2-propanyl)-1H-pyrazol-5-yl)pyrido[2,3-d]pyrimidin-2(1H)-one]		218 nM	164 nM
C=CC(=O)N1CCN(c2nc(=O)n(-c3cncnc3C(C)C)c3nc(-c4c(O)cccc4F)c(Cl)cc23)[C@@H](C)C1 [Example 54-26, 6-chloro-7-(2-fluoro-6-hydroxy-phenyl)-4-((2S)-2-methyl-4-(2-propenoyl)-1-piperazinyl)-1-(4-(2-propanyl)-5-pyrimidinyl) pyrido[2,3-d]pyrimidin-2(1H)-one]	0.105 | nda μM	220 nM	
C=CC(=O)N1CCN(c2nc(=O)n(-c3ccnn3C3CCC3)c3nc(-c4c(O)cccc4F)c(Cl)cc23)[C@@H](C)C1 [Example 54-28, 6~chloro-1-(1-cyclobutyl-1H-pyrazol-5-yl)-7-(2-fluoro-6-hydroxyphenyl)-4-((2S)-2-methyl-4-(2-propenoyl)-1-piperazinyl) pyrido[2,3-d]pyrimidin-2(1H)-one]	0.19 | nda μM	245 nM	
C=CC(=O)N1CCN(c2nc(=O)n(-c3ccnn3C3CCC3)c3nc(-c4ccccc4F)c(Cl)cc23)[C@@H](C)C1 [Example 54-29, 6-chloro-1-(1-cyclobutyl-1H-pyrazol-5-yl)-7-(2-fluorophenyl)-4-((2S)-2-methyl-4-(2-propenoyl)-1-piperazinyl) pyrido[2,3-d]pyrimidin-2(1H)-one]	0.406 | nda μM	717 nM	
C=CC(=O)N1CCN(c2nc(=O)n(-c3ccccc3CC)c3nc(-c4c(O)cccc4F)c(Cl)cc23)[C@@H](C)C1 [Example 54-34, 6-chloro-1-(2-ethylphenyl)-7-(2-fluoro-6-hydroxyphenyl)-4-((2S)-2-methyl-4-(2-propenoyl)-1-piperazinyl) pyrido[2,3-d]pyrimidin-2(1H)-one]	0.325 | nda μM	97 nM	
C=CC(=O)N1CCN(c2nc(=O)n(-c3ccccc3Cl)c3nc(-c4c(O)cccc4F)c(Cl)cc23)[C@@H](C)C1 [Example 54-35, 6-chloro-1-(2-chlorophenyl)-7-(2-fluoro-6-hydroxyphenyl)-4-((2S)-2-methyl-4-(2-propenoyl)-1-piperazinyl) pyrido[2,3-d]pyrimidin-2(1H)-one]	0.582 | nda μM	383 nM	
C=CC(=O)N1CCN(c2nc(=O)n(-c3ccncc3C(C)C)c3nc(-c4c(O)cccc4F)c(Cl)cc23)[C@@H](C)C1 [Example 54-36, 6-chloro-7-(2-fluoro-6-hydroxy-phenyl)-4-((2S)-2-methyl-4-(2-propenoyl)-1-piperazinyl)-1-(3-(2-propanyl)-4-pyridinyl) pyrido[2,3-d]pyrimidin-2(1H)-one]	0.149 | nda μM	158 nM	
C=CC(=O)N1CCN(c2nc(=O)n(-c3nccnc3CC)c3nc(-c4c(O)cccc4F)c(Cl)cc23)[C@@H](C)C1 [Example 54-37, 6-chloro-1-(3-ethyl-2-pyrazinyl)-7-(2-fluoro-6-hydroxy-phenyl)-4-((2S)-2-methyl-4-(2-propenoyl)-1-piperazinyl) pyrido[2,3-d]pyrimidin-2(1H)-one]	0.304 | nda μM	227 nM	
C=CC(=O)N1CCN(c2nc(=O)n(-c3nccnc3CC)c3nc(-c4ccccc4F)c(Cl)cc23)[C@@H](C)C1 [Example 54-38, 6-chloro-1-(3-ethyl-2-pyrazinyl)-7-(2-fluorophenyl)-4-((2S)-2-methyl-4-(2-propenoyl)-1-piperazinyl) pyrido[2,3-d]pyrimidin-2(1H)-one]	0.651 | nda μM	297 nM	
C=CC(=O)N1CCN(c2nc(=O)n(-c3ccccc3N(C)C)c3nc(-c4c(O)cccc4F)c(Cl)cc23)[C@@H](C)C1 [Example 54-42, 6-chloro-1-(2-(dimethylamino)phenyl)-7-(2-fluoro-6-hydroxyphenyl)-4-((2S)-2-methyl-4-(2-propenoyl)-1-piperazinyl) pyrido[2,3-d]pyrimidin-2(1H)-one]	0.79 | nda μM	322 nM	
C=CC(=O)N1CCN(c2nc(=O)n(-c3ccccc3C(C)C)c3nc(-c4cc(OC(F)F)ccc4F)c(Cl)cc23)[C@@H](C)C1 [Example 54-51, 6-chloro-7-(5-(difluoromethoxy)-2-fluorophenyl)-4-((2S)-2-methyl-4-(2-propenoyl)-1-piperazinyl)-1-(2-(2-propanyl)phenyl)pyrido [2,3-d]pyrimidin-2(1H)-one]	0.265 | nda μM	204 nM	
C=CC(=O)N1CCN(c2nc(=O)n(-c3nonc3C(C)C)c3nc(-c4c(O)cccc4F)c(Cl)cc23)[C@@H](C)C1 [Example 54-52, 6-chloro-7-(2-fluoro-6-hydroxyphenyl)-4-((2S)-2-methyl-4-(2-propenoyl)-1-piperazinyl)-1-(4-(2-propanyl)-1,2,5-oxadiazol-3-yl)pyrido[2,3-d]pyrimidin-2(1H)-one]	0.445 | nda μM	666 nM	
